Common to all, as to assay: growth of human tumour cells (NCI), 48 h
The test system of assay [1] is HL-60(TB) leukemia.
Assay [2] concerns HOP-92 NSCLC.
The test system of assay [3] is MOLT-4 leukemia.
In assay [4] the test system is NCI-H460 lung.
The test system of assay [5] is OVCAR-3 ovarian.
For assay [6], the system named is SW-620 colon.
Assay [7] has as its system TK-10 renal.
Assay [8] relates to U251 CNS.
Assay [9] has as its system UACC-257 melanoma.
Assay [10] concerns UO-31 renal.
In assay [11] the test system is SR leukemia.

In PubChem BioAssay (NCI) one finds TGI data, which are given here for 13 compounds.

The structures appear in SMILES notation.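 Cells were grown in 96-well plates and exposed to each compound for 48 hours at five concentrations; endpoints were interpolated linearly between bracketing concentrations, or set to the highest concentration if not reached. The concentration for full growth arrest is given as TGI.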 Where a SMILES comes first, the peptide text is derived from it. [ ]: non-standard residue; d: D form. The star is where a group is joined. X28 = COC1=CC(=O)N(C(=O)[C@@H](O*)C(C)C)[C@H]1Cc1ccccc1; NMeL = CN[C@@H](CC(C)C)C(=O)O; Cbz = O=C(OCc1ccccc1)*

In the case of `CCCCCCCCCCCCCCCCCCNC(=S)/N=C/c1c(O)cc(C)oc1=O`, the TGI in [1] was > 100 µM; in [2], > 100 µM; in assay [3], > 100 µM; in [4], > 100 µM; in [5], > 100 µM; in [6], 96 µM. Besides, the TGI in [7] was 35.9 µM; in assay [8], > 100 µM; in assay [9], 65.3 µM; in [10], 39.4 µM.
With `COC1=CC(=O)N(C(=O)[C@@H](OC(=O)[C@@H]2CCCN2C(=O)[C@@H]2CCCN2C(=O)[C@H](CC(C)C)N(C)C(=O)[C@@H](NC(=O)[C@@H](NC(=O)OCc2ccccc2)C(C)C)C(C)C)C(C)C)[C@H]1Cc1ccccc1` (Cbz-VV[NMeL]PP-X28), the TGI in [1], in assay [2], in assay [4], in assay [5], in assay [6] and in assay [7] was > 100 µM each time. The TGI in assay [8], in [9] and in assay [10] was > 100 µM each time.
As to `CCN(CC)CCNc1ccc2nnn3c4ccc(OC(C)=O)cc4c(=O)c1c23`, the TGI in [2] was determined as 17.7 µM; in assay [4], 11.5 µM; in assay [5] it was 22.2 µM; in assay [6] it was 13.6 µM; in assay [7], 16.7 µM; in assay [8], 15.5 µM. In addition, the TGI in [9] stood at 24.9 µM; in assay [10], 12.3 µM.
`O=S(=O)(Nc1nc(-c2cc(O)c(O)c(O)c2)cs1)c1ccc(Cl)cc1Cl`: the TGI is > 100 µM in assay [1]; > 100 µM in assay [2]; 52.7 µM in assay [3]; 38.6 µM in assay [4]; 37.6 µM in assay [5]; 37.5 µM in assay [6]. Also, the TGI in [7] was determined as 36.2 µM; in assay [8], 37.3 µM; in [9], 67.7 µM; in assay [10], 46.5 µM.
As to `CCN(CC)CCNC(=O)c1cc2cc(NC(=O)c3cc4cc(NC(=O)c5cc6cc([N+](=O)[O-])ccc6[nH]5)ccc4[nH]3)ccc2[nH]1`, the TGI in [2] is > 100 µM; in [3], > 100 µM; in assay [4] it was > 100 µM; in assay [5], > 100 µM; in assay [11] it was 14.4 µM; in assay [6], > 100 µM. The TGI in assay [7], in assay [8], in [9] and in assay [10] was > 100 µM in each case.
Turning to `CN1CCN(CCCCNc2cc3c4ccccc4c(NCCCCN4CCN(C)CC4)cc3c3ccccc23)CC1`, the TGI in [1] amounted to 14.9 µM; in [2], 28.2 µM; in assay [3], 1.88 µM; in assay [4], 3.2 µM; in assay [5], 8.5 µM; in assay [7], 18.4 µM. Moreover, the TGI is 4.21 µM in [8], 19 µM in assay [9] and 11.8 µM in assay [10].
Take `CCOC(=O)c1ccc2c(=O)n3c(C(=O)OCC)ccc3c(=O)n12`: the TGI in assay [1], in assay [3], in [4], in assay [5], in [11] and in assay [6] was > 100 µM throughout. Also, the TGI in assay [7], in assay [8], in assay [9] and in assay [10] was > 100 µM in each case.
As for `CCOC(=O)CC(=Nc1cc(C)on1)N(CC)CC`, the TGI in [2], in assay [3], in assay [4], in assay [5], in assay [11] and in assay [6] was > 100 µM each time. In addition, the TGI in [7], in [8] and in assay [10] was > 100 µM each time.
As for `C[n+]1c(-c2ccc(/C=N/Nc3n[nH]c(=S)n3N/N=C/c3ccc(-c4cn5ccccc5[n+]4C)cc3)cc2)cn2ccccc21`, the TGI in [1], in [3], in assay [4], in [11], in assay [6] and in [7] was > 100 µM throughout. For the same compound, the TGI in [8], in [9] and in [10] was > 100 µM each time.
Turning to `COc1cc(OC)c(NC2=NCCO2)cc1Cl`, the TGI is > 100 µM in assay [1]; > 100 µM in [3]; 45.9 µM in assay [4]; > 100 µM in [5]; 83.2 µM in assay [11]; > 100 µM in [6]. In addition, the TGI in assay [7], in assay [8], in assay [9] and in [10] was > 100 µM each time.
As for `CN(c1ccccc1Cl)S(=O)(=O)c1ccccc1`, the TGI in [1], in [3], in assay [4], in assay [5], in assay [11] and in [6] was > 100 µM each time. The TGI in assay [7], in [8], in [9] and in [10] was > 100 µM in each case.
On to `COC(=O)Nc1nc2ccc(NS(=O)(=O)c3ccc(F)cc3)cc2[nH]1`, for which the TGI in [1] is 8.45 µM; in assay [2], > 100 µM; in [3] it was 36.5 µM; in assay [4], > 100 µM; in [5] it was 16.2 µM; in assay [6] it was > 100 µM. Further, the figures for the TGI in assay [7], in assay [8] and in assay [10] were 87 µM, > 100 µM and > 100 µM, respectively.
With `N#CCCCCC12C3C(=O)N(c4ccccc4)C(=O)C3ON1O[C@@H]1C(=O)N(c3ccccc3)C(=O)[C@@H]12` (stereo partly drawn), the TGI in [1], in assay [2], in [3], in assay [4], in assay [5] and in assay [6] was > 100 µM throughout. Further, the TGI in [7], in [8], in assay [9] and in assay [10] was > 100 µM in each case.
